≈ marks a conversion by molar mass, not a printed value.
How the values were obtained:
[1] = system: Staphylococcus aureus; test: Antibacterial activity against Staphylococcus aureus K147 after overnight incubation by microtiter dilution method; type: functional
[2] = system: Erythrocyte; test: Haemolytic activity in human RBC after 4 hrs by visual method; type: ADME, cell-based
[3] = system: Pseudomonas aeruginosa; test: Antibacterial activity against Pseudomonas aeruginosa H188 after overnight incubation by microtiter dilution method; type: functional
[4] = system: Escherichia coli; test: Antibacterial activity against Escherichia coli DC2 after overnight incubation by microtiter dilution method; type: functional
[5] = system: Enterococcus faecalis; test: Antibacterial activity against Enterococcus faecalis C625 after overnight incubation by microtiter dilution method; type: functional
[6] = system: Staphylococcus epidermidis; test: Antibacterial activity against Staphylococcus epidermidis C621 after 22 hrs by double dilution method; type: functional; conditions: C621, 22 h
[7] = system: Staphylococcus aureus; test: Antibacterial activity against Staphylococcus aureus ATCC 25923 after 22 hrs by double dilution method; type: functional; conditions: ATCC 25923, 22 h
[8] = system: Escherichia coli; test: Antibacterial activity against Escherichia coli ATCC 25922 after 22 hrs by double dilution method; type: functional; conditions: ATCC 25922, 22 h
[9] = system: Pseudomonas aeruginosa; test: Antibacterial activity against Pseudomonas aeruginosa ATCC 27853 after 22 hrs by double dilution method; type: functional; conditions: ATCC 27853, 22 h
[10] = system: Enterococcus faecalis; test: Antibacterial activity against Enterococcus faecalis ATCC 29212 after 22 hrs by double dilution method; type: functional; conditions: ATCC 29212, 22 h
[11] = system: Staphylococcus epidermidis; test: Antibacterial activity against Staphylococcus epidermidis ATCC 12228 after 22 hrs by double dilution method; type: functional; conditions: ATCC 12228, 22 h
[12] = system: Erythrocyte; test: Haemolytic activity in human RBC after 30 mins by spectrophotometric analysis; type: ADME, cell-based; conditions: 0.5 h
[13] = Therapeutic index, ratio of HC90 for hemolytic activity in human erythrocytes to MIC against Escherichia coli ATCC 25922; type: toxicity, cell-based; conditions: read-out: TI
[14] = Therapeutic index, ratio of HC90 for hemolytic activity in human erythrocytes to MIC against Pseudomonas aeruginosa ATCC 27853; type: toxicity, cell-based; conditions: read-out: TI
[15] = Therapeutic index, ratio of HC90 for hemolytic activity in human erythrocytes to MIC against Enterococcus faecalis ATCC 29212; type: toxicity, cell-based; conditions: read-out: TI
[16] = Therapeutic index, ratio of HC90 for hemolytic activity in human erythrocytes to MIC against Staphylococcus aureus ATCC 25923; type: toxicity, cell-based; conditions: read-out: TI
[17] = Therapeutic index, ratio of HC90 for hemolytic activity in human erythrocytes to MIC against Staphylococcus epidermidis ATCC 12228; type: toxicity, cell-based; conditions: read-out: TI

MIC [1] [µg/mL]	MIC [3] [µg/mL]	MIC [4] [µg/mL]	MIC [5] [µg/mL]	MIC [6] [µg/mL]	MIC [7] [µg/mL]	MIC [8] [µg/mL]	MIC [9] [µg/mL]	MIC [10] [µg/mL]	MIC [11] [µg/mL]	Compound	HC90 [2] [µg/mL]	HC90 [12] [µg/mL]	selectivity ratio [13]	selectivity ratio [14]	selectivity ratio [15]	selectivity ratio [16]	selectivity ratio [17]
12.5 (≈ 12.3 µM)	12.5 (≈ 12.3 µM)	25 (≈ 24.7 µM)	25 (≈ 24.7 µM)	12.5 (≈ 12.3 µM)						CC(C)C[C@@H]1NC(=O)[C@H](CCCN)NC(=O)[C@H](C(C)C)NC(=O)[C@@H]2CC[C@@H]3CC[C@H](NC(=O)[C@H](CC(C)C)NC(=O)[C@@H](CCCN)NC(=O)[C@H](C(C)C)NC(=O)[C@@H]4CC[C@@H]5CC[C@H](NC1=O)C(=O)N54)C(=O)N32	400						
					4 (≈ 3.21 µM)	64 (≈ 51.3 µM)	128 (≈ 103 µM)	8 (≈ 6.41 µM)	4 (≈ 3.21 µM)	CCCCCCCC[C@H]1CC2C(C1)[C@@H]1SC[C@H]3C(=O)N[C@@H](C(C)C)C(=O)N[C@@H](CCCN)C(=O)N[C@@H](CC(C)C)C(=O)N[C@H](Cc4ccccc4)C(=O)N4CCC[C@H]4C(=O)N[C@@H](C(C)C)C(=O)N[C@H](CCCN)C(=O)N[C@@H](CC(C)C)C(=O)N[C@H]2C(=O)N31 (some centres not stated)		38	0.59	0.3	4.75	9.5	9.5
